{"source": "patent US20220023271A1", "about": "“COMPOSITION FOR PREVENTING OR TREATING CELLULAR SENESCENCE-RELATED DISEASES COMPRISING ZOTAROLIMUS AS ACTIVE INGREDIENT” (RESEARCH COOPERATION FOUNDATION OF YEUNGNAM UNIVERSITY, priority 2018, published 2022)", "key": {"[1]": {"system": "renal fibrosis induced by renal ischemia-reperfusion injury", "experiment": "Renal fibrosis induced by renal ischemia-reperfusion injury in mice", "assay_type": "in vivo, C57BL/6J mice", "protocol": "Animal experiments were performed with the approval of the Animal Experimental Ethics Committee, Yeungnam University College of Medicine (YUMC-AEC2018-024). C57BL/6J 8-week-old male mice were anesthetized by intraperitoneal injection of 2.5% Avertin (0.025 ml/g body weight).\nThe anesthetized mice were placed on a hot plate at 37° C. and the left flank was incised to expose the left kidney. The renal arteriovenous blood vessels were ligated with a microaneurism clamp (Roboz), and whether the blood vessels were blocked or not was confirmed by the color of the kidneys. During the induction of ischemia, the body temperature of the mice was maintained at 36.5-37.5° C. After 35 minutes, the clamp was removed and it was confirmed that reperfusion occurred.\nAs a control, renal arteriovenous vessels were not ligated, and the rest was performed in the same manner as above. From 4 days after ischemia-reperfusion injury, 2.5 μl of 10 mM zotarolimus was diluted in 100 μl of phosphate buffer solution at intervals of 2 days and injected into the abdominal cavity 3 times (Zota group). […] Three mice were used for each group.\nThe left kidney in which ischemia-reperfusion injury was induced, was excised in half and fixed in 10% formalin solution or stored frozen in liquid nitrogen. […]\nTo confirm the degree of lipid peroxidation in tissues, malondialdehyde (MDA) was confirmed by the TBARS method (Garcia Y J, et al., Journal of neuroscience methods. 2005).\nBriefly, 1.4 ml of TBARS solution [0.375% thiobarbituric acid (TBA), 15% trichloroacetic acid (TCA), 0.25 N HCl] was added to the tissue pulverization solution (0.3 mg protein/0.1 ml), and boiled for 15 minutes at 95-100° C. and centrifugation was performed at 4° C. and 12,000 rpm for 10 minutes, and the absorbance of the supernatant was confirmed at 540 nm.\nLipid hydroperoxides were identified by ferrous ion oxidation xylenol orange (FOX) method (Jiang Z Y, et al., Lipids. 1991).\n0.9 ml of FOX reagent (100 μM xylenol orange, 25 mM H2SO4, 0.1 M sorbitol, 2.5 mM ferrous ammonium sulfate] was reacted at room temperature for 30 minutes and then centrifuged to measure the absorbance of the supernatant at 570 nm. […]\nRIPA buffer was added to the tissue and pulverized with WiseTis homogenizer HG-15D (DAIHAN Scientific, Seoul, South Korea). Centrifugation was performed at 12,000 rpm at 4° C. for 20 minutes, and the supernatant was transferred to a new tube.\nThe protein concentration of the supernatant was quantified by the BCA method. After electrophoresis (SDS-PAGE) of 30 μg of protein, Western blot analysis was performed. After electrophoresis, the protein was transferred from the gel to a polyvinylidene fluoride membrane (Pall Corporation).\nThe membrane was treated with a 5% Difco™ skim milk solution (Becton, Dickinson and Company, USA) for 2 hours at room temperature, and the primary antibody was added, followed by reaction at room temperature for 2 hours. As the primary antibody, anti-p53 antibody, anti-p16 antibody, anti-actin antibody, and anti-GAPDH antibody were purchased from Santa Cruz Biotechnology, Inc. Anti-phosphorylated-Rb antibody was obtained from New England Biolabs (Ipswich, Mass., USA), and the anti-SOD2 antibody and anti-catalase antibody were obtained from Bioworld Technology Inc. (Louis Park, Minn., USA), anti-4-HNE antibody, anti-α-smooth muscle actin antibody, and anti-type I collagen antibody were purchased from Abcam (Cambridge, UK).\nThe membrane treated with the primary antibody was washed three times for 15 minutes each with TBST (20 mM Tris-HCl (pH 8.0), 137 mM NaCl, 0.1% Tween 20), and reacted for 60 minutes by treatment with the secondary antibody.\nAfter washing for at least 60 minutes with TBST, protein expression was confirmed using an ECL detection kit (Elpis Biotech, Daejeon, South Korea).\nThe tissue fixed in 10% formalin solution was embedded with paraffin and cut into 4 μm to prepare a tissue sample. […]"}, "[2]": {"system": "human retinal pigmented epithelial cells (ARPE-19)", "experiment": "SAβG activity staining in senescent retinal pigmented epithelial cells", "assay_type": "cell-based", "conditions": "premature senescent retinal pigmented epithelial cells by doxorubicin; 100 nM, 4 days; vs DMSO-treated group; p<0.01", "protocol": "Each cell was treated in a serum-free culture solution containing 0.5 μM doxorubicin for 4 hours. After washing the cells with a serum-free culture solution, the cells were cultured for 4 days in a culture solution containing 10% FBS, and then cellular aging was confirmed by staining with senescence-associated beta galactosidase (SAβG). After each sample was dissolved in DMSO, young cells, replicative senescent cells, and premature senescent cells treated with doxorubicin were treated with 100 nM zotarolimus, 100 nM rapamycin, 100 nM ABT263, respectively. After incubation for 4 days in a 37° C., 5% CO2 incubator, the degree of cell growth was confirmed by CCK-8 analysis, the degree of cellular aging was confirmed by senescence-related beta-galactosidase (SAβG) staining, The cells were washed with 1× phosphate buffer solution, and fixed with a phosphate buffer solution containing 3.7% (v/v) paraformaldehyde. After adding 1 mg/ml 5-bromo-4-chloro-3-indolyl-6-D-galactoside, 40 mM citric acid-sodium phosphate (pH 6.0), 5 mM potassium ferricyanide, 5 mM potassium ferrocyanide, 150 mM NaCl, and 2 mM MgCl2 solution, it was reacted at 37° C. for 18 hours. It was stained with eosin as a control stain. Cells stained blue in the cytoplasm were identified using an optical microscope. […]"}, "[3]": {"conditions": "i.p. 3 times from day 4, vs PBS group"}}, "data": [{"smiles": "CO[C@H]1C[C@@H]2CC[C@@H](C)[C@@](O)(O2)C(=O)C(=O)N2CCCC[C@H]2C(=O)O[C@H]([C@H](C)C[C@@H]2CC[C@H](n3cnnn3)[C@H](OC)C2)CC(=O)[C@H](C)/C=C(\\C)[C@@H](O)[C@@H](OC)C(=O)[C@H](C)C[C@H](C)/C=C/C=C/C=C/1C", "note": "[zotarolimus]", "values": [{"measurement": "weight gain", "setting": "[1]; body weight before injury vs 11th day, i.p. 3 times at 2-day intervals, vs Sham group", "value": "significantly reduced compared to that of the Sham group"}, {"measurement": "plasma BUN", "setting": "[1]; [3]", "value": "decreased"}, {"measurement": "plasma creatinine", "setting": "[1]; [3]", "value": "decreased"}, {"measurement": "expression of SOD2", "setting": "[1]; kidney tissue", "value": "increased"}, {"measurement": "expression of catalase", "setting": "[1]; kidney tissue", "value": "increased"}, {"measurement": "superoxide", "setting": "[1]; kidney tissue", "value": "significantly reduced"}, {"measurement": "damage to the kidney tubules", "setting": "[1]; kidney tissue specimen, vs PBS group", "value": "significantly reduced"}, {"measurement": "degree of lipid oxidation (lipid hydroperoxides and MDA)", "setting": "[1]; kidney tissue, vs PBS group", "value": "significantly reduced"}, {"measurement": "degree of tissue fibrosis by trichrome staining", "setting": "[1]; kidney tissue, vs PBS group", "value": "significantly reduced"}, {"measurement": "expression level of 4-HNE (Western blot)", "setting": "[1]; kidney tissue, vs PBS group", "value": "significantly reduced"}, {"measurement": "expression level of p16 (Western blot)", "setting": "[1]; kidney tissue, vs PBS group", "value": "significantly reduced"}, {"measurement": "expression of p53 (Western blot)", "setting": "[1]; kidney tissue, vs PBS group", "value": "significantly reduced"}, {"measurement": "expression of pRb (Western blot)", "setting": "[1]; kidney tissue, vs PBS group", "value": "significantly reduced"}, {"measurement": "expression of type 1 collagen (COL1) (Western blot)", "setting": "[1]; kidney tissue, vs PBS group", "value": "significantly reduced"}, {"measurement": "expression of α-SMA (Western blot)", "setting": "[1]; kidney tissue, vs PBS group", "value": "significantly reduced"}, {"measurement": "lipofuscin staining intensity (Sudan Black B)", "setting": "[1]; kidney tissue, vs PBS group", "value": "significantly reduced"}, {"measurement": "SAβG activity staining", "setting": "[2]", "value": "significantly decreased"}]}]}
